Laboratory results published in patent US20220235011A1, “PHTHALAZINONE COMPOUNDS AND USE THEREOF” (ST PHARM CO., LTD., priority 2019, published 2022).

Each molecule was assayed against T1, Sirt6 (Homo sapiens, UniProt Q8N6T7) (assay: Measurement of Sirt6 Activity (CycLex Sirt6 Deacetylase Fluorometric Assay Kit)). Settings: compound at 10 μM; fluorescence relative to the group without compound treatment (positive control group).
T1 construct: purchased CycLex CY-1156V2
Format: biochemical
Method in brief: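 Recombinant Sirt6 with fluoro-labelled acetyl-lysine peptide, NAD and lysylendopeptidase developer, compound added from 10× stock in PBS; 1 h at room temperature. Fluorescence read at ex 490/em 530 nm; activation expressed as fluorescence ratio relative to enzyme without compound.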

T1 sequence (Q8N6T7 whole entry): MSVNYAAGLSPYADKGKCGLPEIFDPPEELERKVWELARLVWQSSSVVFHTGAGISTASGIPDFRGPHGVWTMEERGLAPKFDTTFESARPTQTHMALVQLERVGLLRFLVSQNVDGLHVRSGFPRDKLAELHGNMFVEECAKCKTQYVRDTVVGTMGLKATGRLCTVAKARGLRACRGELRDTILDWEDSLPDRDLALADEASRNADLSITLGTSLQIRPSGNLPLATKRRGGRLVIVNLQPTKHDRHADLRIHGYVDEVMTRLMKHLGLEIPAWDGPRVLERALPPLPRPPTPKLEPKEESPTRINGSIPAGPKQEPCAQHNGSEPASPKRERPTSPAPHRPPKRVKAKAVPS

| SMILES | Sirt6 Activity (% activity, 10 μM) |
| --- | --- |
| CCS(=O)(=O)N(C)c1cccc(-c2nn(-c3ccc(C(F)(F)F)cc3)c(=O)c3ccccc23)c1 [Example 5, N-Methyl-N-(3-(4-oxo-3-(4-(trifluoromethyl)phenyl)-3,4-dihydrophthalazin-1-yl)phenyl)ethanesulfonamide] | 105 % activity |
| CC(C)(C(=O)O)c1cccc(-c2nn(-c3ccc(Cl)cc3)c(=O)c3ccccc23)c1 [Example 194, 2-(3-(3-(4-Chlorophenyl)-4-oxo-3,4-dihydrophthalazin-1-yl)phenyl)-2-methylpropanoic Acid] | 350.20 % activity |
| CCNS(=O)(=O)c1cccc(-c2nn(-c3ccc(F)cc3F)c(=O)c3ccccc23)c1 [Example 92, 3-(3-(2,4-Difluorophenyl)-4-oxo-3,4-dihydrophthalazin-1-yl)-N-ethylbenzene Sulfonamide] | 208 % activity |
| CCS(=O)(=O)NC1CCN(c2nn(-c3ccc(F)cc3)c(=O)c3ccccc23)C1 (stereo not drawn) [Example 137, N-(1-(3-(4-Fluorophenyl)-4-oxo-3,4-dihydrophthalazin-1-yl)pyrrolidin-3-yl)ethanesulfonamide] | 112.58 % activity |
| CNC(=O)C(C)(C)c1cccc(-c2nn(C3CCCCC3)c(=O)c3ccccc23)c1 [Example 164, 2-(3-(3-Cyclohexyl-4-oxo-3,4-dihydrophthalazin-1-yl)phenyl)-N,2-dimethylpropanamide] | 285.5 % activity |
| Cl.N[C@H]1CCCCN(c2nn(C3CCCCC3)c(=O)c3ccccc23)C1 [Example 155, (S)-4-(3-Aminoazepan-1-yl)-2-cyclohexyl phthalazin-1(2H)-one-hydrochloride] | 230.9 % activity |
| CC(C)/[N+]([O-])=C/c1cccc(-c2nn(-c3ccccc3F)c(=O)c3ccccc23)c1 [Example 95, (Z)-1-(3-(3-(2-Fluorophenyl)-4-oxo-3,4-dihydrophthalazin-1-yl)phenyl)-N-isopropyl Methanimine Oxide] | 133 % activity |
| O=C(O)C1(c2cccc(-c3nn(-c4ccc(F)cc4F)c(=O)c4ccccc34)c2)CCC1 [Example 207, 1-(3-(3-(2,4-Difluorophenyl)-4-oxo-3,4-dihydrophthalazin-1-yl)phenyl)cyclobutane-1-carboxylic Acid] | 309.90 % activity |
| Nc1cccc(-c2nn(-c3ccc(F)cc3)c(=O)c3ccccc23)c1 [Example 60, 4-(3-Aminophenyl)-2-(4-fluorophenyl) phthalazin-1(2H)-one] | 176 % activity |
| CC(C)(C(=O)N1CCCC1)c1cccc(-c2nn(-c3ccc(F)cc3F)c(=O)c3ccccc23)c1 [Example 177, 2-(2,4-Difluorophenyl)-4-(3-(2-methyl-1-oxo-1-(pyrrolidin-1-yl)propan-2-yl)phenyl)phthalazin-1(2H)-one] | 241.6 % activity |
| CC(C)(C(=O)O)c1cccc(-c2nn(-c3ccc(F)cc3F)c(=O)c3ccccc23)c1 [Example 166, 2-(3-(3-(2,4-Difluorophenyl)-4-oxo-3,4-dihydrophthalazin-1-yl)phenyl)-2-methylpropanoic Acid] | 239.2 % activity |
| O=c1c2ccccc2c(-c2cccc(NS(=O)(=O)C3CC3)c2)nn1-c1ccc(F)cc1 [Example 71, N-(3-(3-(4-Fluorophenyl)-4-oxo-3,4-dihydrophthalazin-1-yl)phenyl)cyclopropane Sulfonamide] | 150 % activity |
| Cl.N[C@H]1CCCCN(c2nn(-c3ccc(F)cc3)c(=O)c3ccccc23)C1 [Example 158, (S)-4-(3-Aminoazepan-1-yl)-2-(4-fluorophenyl)phthalazin-1(2H)-one-hydrochloride] | 164.7 % activity |
| CCS(=O)(=O)Nc1cccc(-c2nn(C3CCN(C)CC3)c(=O)c3ccccc23)c1 [Example 129, N-(3-(3-(1-Methylpiperidin-4-yl)-4-oxo-3,4-dihydrophthalazin-1-yl)phenyl)ethane Sulfonamide] | 104.16 % activity |
| CC/[N+]([O-])=C/c1cccc(-c2nn(-c3ccc(F)cc3)c(=O)c3ccccc23)c1 [Example 16, (Z)—N-Ethyl-1-(3-(3-(4-fluorophenyl)-4-oxo-3,4-dihydrophthalazin-1-yl)phenyl)methanimine Oxide] | 221 % activity |
| CC(C)(c1cccc(-c2nn(-c3ccc(F)cc3F)c(=O)c3ccccc23)c1)c1nnn[nH]1 [Example 169, 4-(3-(2-(1H-Tetrazol-5-yl)propan-2-yl)phenyl)-2-(2,4-difluorophenyl)phthalazin-1(2H)-one] | 211.3 % activity |
| CC(C)(C)/[N+]([O-])=C/c1cccc(-c2nn(-c3ccccc3F)c(=O)c3ccccc23)c1 [Example 96, (Z)—N-tert-Butyl-1-(3-(3-(2-fluorophenyl)-4-oxo-3,4-dihydrophthalazin-1-yl)phenyl)methanimine Oxide] | 176 % activity |
| COC(=O)NS(=O)(=O)Nc1cccc(-c2nn(-c3ccc(F)cc3F)c(=O)c3ccccc23)c1 [Example 26, Methyl (N-(3-(3-(2,4-difluorophenyl)-4-oxo-3,4-dinydrophthalazin-1-yl)phenyl)sulfamoyl)carbamate] | 180 % activity |
| O=C1CCCCN(c2nn(-c3ccc(F)cc3F)c(=O)c3ccccc23)C1 [Example 193, 2-(2,4-Difluorophenyl)-4-(3-oxoazepan-1-yl)phthalazin-1 (2H)-one] | 206.10 % activity |
| CS(=O)(=O)c1cccc(-c2nn(-c3ccc(F)cc3F)c(=O)c3cc(F)ccc23)c1 [Example 120, 2-(2,4-Difluorophenyl)-7-fluoro-4-(3-(methylsulfonyl)phenyl)phthalazin-1(2H)-one] | 178 % activity |
| COC(=O)N(C)S(=O)(=O)N(C)c1cccc(-c2nn(-c3ccc(F)cc3)c(=O)c3ccccc23)c1 [Example 76, Methyl (N-(3-(3-(4-fluorophenyl)-4-oxo-3,4-dihydrophthalazin-1-yl)phenyl)-N-methylsulfamoyl) (methyl)carbamate] | 125 % activity |
| CNS(=O)(=O)c1cccc(-c2nn(-c3ccccc3)c(=O)c3ccc(F)cc23)c1 [Example 111, 3-(7-Fluoro-4-oxo-3-phenyl-3,4-dihydrophthalazin-1-yl)-N-methylbenzenesulfonamide] | 126 % activity |
| CC(C)(N)c1cccc(-c2nn(-c3ccc(F)cc3F)c(=O)c3ccccc23)c1.Cl [Example 200, 4-(3-(2-Aminopropan-2-yl)phenyl)-2-(2,4-difluorophenyl)phthalazin-1(2H)-one-hydrochloride] | 255.33 % activity |
| Cl.O=c1c2ccccc2c(N2CCCC[C@@H](NCCO)C2)nn1-c1ccc(F)cc1F [Example 191, (R)-2-(2,4-Difluorophenyl)-4-(3-((2-hydroxyethyl)amino)azepan-1-yl)phthalazin-1(2H)-one-hydro Chloride] | 312.70 % activity |
| CCS(=O)(=O)NC1CCCCN(c2nn(-c3ccc(F)cc3)c(=O)c3ccccc23)C1 (stereo not drawn) [Example 141, N-(1-(3-(4-Fluorophenyl)-4-oxo-3,4-dihydrophthalazin-1-yl)azepan-3-yl)ethanesulfonamide] | 212.55 % activity |
| O=C1OCCN1c1cccc(-c2nn(-c3ccc(F)cc3)c(=O)c3ccccc23)c1 [Example 161, 3-(3-(3-(4-Fluorophenyl)-4-oxo-3,4-dihydrophthalazin-1-yl)phenyl)oxazolidin-2-one] | 177 % activity |
| O=c1c2ccccc2c(-c2cccc(S(=O)(=O)NCCO)c2)nn1-c1ccc(F)cc1F [Example 127, 3-(3-(2,4-Difluorophenyl)-4-oxo-3,4-dihydrophthalazin-1-yl)-N-(2-hydroxyethyl)benzene Sulfonamide] | 321 % activity |
| CN(C)S(=O)(=O)Nc1cccc(-c2nn(-c3ccccc3)c(=O)c3ccccc23)c1 [Example 9] | 154 % activity |
| CC(C)(C(N)=O)c1cccc(-c2nn(-c3ccc(Cl)cc3)c(=O)c3ccccc23)c1 [Example 197, 2-(3-(3-(4-Chlorophenyl)-4-oxo-3,4-dihydrophthalazin-1-yl)phenyl)-2-methylpropanamide] | 153.60 % activity |
| O=c1c2ccccc2c(-c2ccc[n+]([O-])c2)nn1-c1c(F)cccc1F [Example 118, 3-(3-(2,6-Difluorophenyl)-4-oxo-3,4-dihydrophthalazin-1-yl)pyridine 1-oxide] | 231 % activity |

Same assay, conditions: compound at 10 μM; fluorescence relative to the group without compound treatment (positive control group); 10 µM

| SMILES | Sirt6 Activity (% activity, 10 μM) |
| --- | --- |
| O=C(O)C1(C2CCCN(c3nn(-c4ccc(F)cc4F)c(=O)c4ccccc34)C2)CC1 (stereo not drawn) [Example 213-1, 1-(1-(3-(2,4-Difluorophenyl)-4-oxo-3,4-dihydrophthalazin-1-yl)piperidin-3-yl)cyclopropan-1-carboxylic Acid] | 168.10 % activity |
| O=C(O)C1(C2CCCN(c3nn(-c4ccc(F)cc4F)c(=O)c4ccccc34)C2)CC1 (stereo not drawn) [Example 212, 1-(1-(3-(2,4-Difluorophenyl)-4-oxo-3,4-dihydrophthalazin-1-yl)piperidin-3-yl)cyclopropan-1-carboxylic Acid] | 170.10 % activity |
| CC(C)(C(=O)O)C1CCCN(c2nn(-c3ccc(F)cc3F)c(=O)c3ccccc23)C1 (stereo not drawn) [Example 210-2, 2-(1-(3-(2,4-Difluorophenyl)-4-oxo-3,4-dihydrophthalazin-1-yl)piperidin-3-yl)-2-methylpropanoic Acid] | 100.50 % activity |
